# In US7994140B2, “Classes of compounds that interact with GPCRs” (Alchemia Limited, priority 2002, dated 2011):
# Target: T1, MC4 (Homo sapiens, UniProt P32245)
# T1 construct: purchased Perkin Elmer BioSignal; host or cells: HEK 293
# Test: GPCR radioligand binding (RLB) assay, melanocortin MC4, [125I]NDP-αMSH
# Details: 4.0 Micromolar; Example Library 10
# Experimental: Recombinant human receptors expressed in HEK 293 cells were used for all experiments. Receptor membrane preparations were purchased from Perkin Elmer BioSignal. The labelled ligand used in somatostatin GPCR RLB assays was [^125I]SST-14 and in melanocortin assays was [^125I]NDP-αMSH. All assays were done in a 96-well plate format using either glass fiber filter mats or filter plates. All reagents purchased were of the highest quality.
# Specific assay buffer, incubation and washing conditions were optimized for each receptor however they all followed the same general format. The procedures for both filter mat and filter plate formats are based on the receptor manufacturers recommendations or those described extensively in the literature. The procedures are briefly outlined below.
# In assays where filter mats are used we incubate receptor membranes, assay buffer and [^125I] labelled ligand in 96 well microplates. Add compounds to incubation mixture and continue incubation for optimized period. Presoak Filter mat GF/B in 0.5% PEI for ˜2 hr at 4° C. On completion of assay mixture incubation add additional 100 μL/well of assay buffer immediately prior to filtration. Filter the assay mixture onto the GF/B filter mat using a cell harvester. Dry the filter mats prior to sealing them into a scintillation counting bag with scintillant. Radioactivity in each well is detected by liquid scintillation counting.
# In assays where filter plates are used Multiscreen glass fiber filter plates (Millipore, Cat No MAFCNOB10) are precoated with 0.5% PEI for ˜2 hr at 4° C. All wells are then washed with 200 µl/well assay buffer and filtered using the Multiscreen Separation System. Subsequently receptor membranes, assay buffer and labelled ligands are added to the wells and equilibrated. Compounds for testing are then added to the mixture and incubation is continued for an optimized time. Plates are then put into the Multiscreen Separation System and the assay mixture is filtered through the plate under vacuum. Each well is then washed several times with assay buffer. Plates are then dried prior to putting sealing tape onto the bottom of the plate. Scintillant is added to each well and radioactivity measured by liquid scintillation counting.
# Raw data was analysed according to standard methods using either GraphPad Prism software or IDDBS ActivityBase software.
# T1 sequence (P32245 whole entry): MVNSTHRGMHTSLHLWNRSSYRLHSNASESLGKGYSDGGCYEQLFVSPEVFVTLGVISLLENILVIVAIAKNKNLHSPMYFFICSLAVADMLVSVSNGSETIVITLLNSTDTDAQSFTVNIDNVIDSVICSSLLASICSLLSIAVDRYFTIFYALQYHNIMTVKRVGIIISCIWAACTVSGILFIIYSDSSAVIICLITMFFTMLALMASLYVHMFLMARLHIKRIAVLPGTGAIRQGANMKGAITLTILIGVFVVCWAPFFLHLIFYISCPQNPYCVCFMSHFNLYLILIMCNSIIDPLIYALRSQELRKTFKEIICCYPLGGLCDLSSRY
row,SMILES,MC4 Inhibition at 4.0 Micromolar
1,"NCCC(=O)N[C@H]1C(OCc2ccc3ccccc3c2)O[C@H](COCc2ccccc2)[C@@H](O)[C@@H]1OCc1ccccc1 (single isomer, unassigned) [Compound 362]",+ (Indicates inhibition greater than . . . 50%)
2,"NCCC(=O)N[C@H]1C(OCc2ccc3ccccc3c2)O[C@H](COCc2ccccc2)[C@@H](O)[C@@H]1OCc1ccccc1 (single isomer, unassigned) [Compound 363]",+ (Indicates inhibition greater than . . . 50%)
3,"NCCCC(=O)N[C@H]1C(OCc2ccc3ccccc3c2)O[C@H](COCc2ccc3ccccc3c2)[C@@H](O)[C@@H]1OCc1ccc(Cl)cc1 (single isomer, unassigned) [Compound 365]",+ (Indicates inhibition greater than . . . 50%)
4,"NCCCC(=O)N[C@H]1C(OCc2ccc3ccccc3c2)O[C@H](COCc2ccc3ccccc3c2)[C@@H](O)[C@@H]1OCc1ccc(Cl)cc1 (single isomer, unassigned) [Compound 366]",+ (Indicates inhibition greater than . . . 50%)
5,"NCCCC(=O)N[C@H]1C(OCc2ccc3ccccc3c2)O[C@H](COCc2ccc(Cl)cc2)[C@@H](O)[C@@H]1OCc1ccc(Cl)cc1 (single isomer, unassigned) [Compound 367]",+ (Indicates inhibition greater than . . . 50%)
6,"NCCCC(=O)N[C@H]1C(OCc2ccc3ccccc3c2)O[C@H](COCc2ccc(Cl)cc2)[C@@H](O)[C@@H]1OCc1ccc(Cl)cc1 (single isomer, unassigned) [Compound 368]",+ (Indicates inhibition greater than . . . 50%)
7,"NCCCC(=O)N[C@H]1C(OCc2ccc3ccccc3c2)O[C@H](COCc2ccc(Cl)cc2)[C@@H](O)[C@@H]1OCc1ccc2ccccc2c1 (single isomer, unassigned) [Compound 370]",+ (Indicates inhibition greater than . . . 50%)
8,"NCCCC(=O)N[C@H]1C(OCc2ccc3ccccc3c2)O[C@H](COCc2ccc(Cl)cc2)[C@@H](O)[C@@H]1OCc1ccc2ccccc2c1 (single isomer, unassigned) [Compound 371]",+ (Indicates inhibition greater than . . . 50%)
9,"NCCCC(=O)N[C@H]1C(OCc2ccc3ccccc3c2)O[C@H](COCc2ccc3ccccc3c2)[C@@H](O)[C@@H]1OCc1ccccc1 (single isomer, unassigned) [Compound 372]",+ (Indicates inhibition greater than . . . 50%)
10,"NCCCC(=O)N[C@H]1C(OCc2ccc3ccccc3c2)O[C@H](COCc2ccc3ccccc3c2)[C@@H](O)[C@@H]1OCc1ccccc1 (single isomer, unassigned) [Compound 373]",+ (Indicates inhibition greater than . . . 50%)
11,"NCCCC(=O)N[C@H]1C(OCc2ccc(Cl)cc2)O[C@H](COCc2ccc3ccccc3c2)[C@@H](O)[C@@H]1OCc1ccc2ccccc2c1 (single isomer, unassigned) [Compound 389]",+ (Indicates inhibition greater than . . . 50%)
12,"NCCCC(=O)N[C@H]1C(OCc2ccc(Cl)cc2)O[C@H](COCc2ccc3ccccc3c2)[C@@H](O)[C@@H]1OCc1ccc2ccccc2c1 (single isomer, unassigned) [Compound 390]",+ (Indicates inhibition greater than . . . 50%)
13,"NCCCC(=O)N[C@H]1C(OCc2ccc(Cl)cc2)O[C@H](COCc2ccccc2)[C@@H](O)[C@@H]1OCc1ccc2ccccc2c1 (single isomer, unassigned) [Compound 391]",+ (Indicates inhibition greater than . . . 50%)
14,"NCCCC(=O)N[C@H]1C(OCc2ccc(Cl)cc2)O[C@H](COCc2ccccc2)[C@@H](O)[C@@H]1OCc1ccc2ccccc2c1 (single isomer, unassigned) [Compound 392]",+ (Indicates inhibition greater than . . . 50%)
15,"NCCCC(=O)N[C@H]1C(OCc2ccc(Cl)cc2)O[C@H](COCc2ccc(Cl)cc2)[C@@H](O)[C@@H]1OCc1ccc2ccccc2c1 (single isomer, unassigned) [Compound 393]",+ (Indicates inhibition greater than . . . 50%)
16,"NCCCC(=O)N[C@H]1C(OCc2ccc(Cl)cc2)O[C@H](COCc2ccc(Cl)cc2)[C@@H](O)[C@@H]1OCc1ccc2ccccc2c1 (single isomer, unassigned) [Compound 394]",+ (Indicates inhibition greater than . . . 50%)

# Same assay, conditions: 10 micromolar compound; recombinant human receptor membranes (HEK 293)
row,SMILES,MC4 inhibition at 10 micromolar
1,COC[C@H]1OC(OCc2ccccc2)[C@H](NC(=O)CNC(=N)N)[C@@H](OCc2ccc(-c3ccccc3)cc2)[C@@H]1O (stereo partly drawn) [Compound 5],+ (Indicates inhibition greater than . . . 50%)
2,COC[C@H]1OC(OCCc2ccccc2)[C@H](NC(=O)CNC(=N)N)[C@@H](OCc2ccc(-c3ccccc3)cc2)[C@@H]1O (stereo partly drawn) [Compound 19],+ (Indicates inhibition greater than . . . 50%)
3,COC[C@H]1OC(OCCc2ccccc2)[C@H](NC(=O)CCNC(=N)N)[C@@H](OCc2ccc(-c3ccccc3)cc2)[C@@H]1O (stereo partly drawn) [Compound 20],+ (Indicates inhibition greater than . . . 50%)
4,CO[C@H]1[C@H](O)[C@@H](COCc2ccc(-c3ccccc3)cc2)OC(OCc2ccc(-c3ccccc3)cc2)[C@@H]1NC(=O)CCCNC(=N)N (stereo partly drawn) [Compound 58],+ (Indicates inhibition greater than . . . 50%)
5,CO[C@H]1[C@H](O)[C@@H](COCc2ccc3ccccc3c2)OC(OCc2ccc(-c3ccccc3)cc2)[C@@H]1NC(=O)CNC(=N)N (stereo partly drawn) [Compound 59],+ (Indicates inhibition greater than . . . 50%)
6,COC1C(O)C(COCc2ccc3ccccc3c2)OC(OCc2ccc(-c3ccccc3)cc2)C1NC(=O)CCCNC(=N)N (stereo not drawn) [Compound 62],+ (Indicates inhibition greater than . . . 50%)
7,COC1C(O)C(COCc2ccc(Cl)cc2)OC(OCc2ccc(-c3ccccc3)cc2)C1NC(=O)CNC(=N)N (stereo not drawn) [Compound 63],+ (Indicates inhibition greater than . . . 50%)
8,COC1C(O)C(COCc2ccc(Cl)cc2)OC(OCc2ccc(-c3ccccc3)cc2)C1NC(=O)CCNC(=N)N (stereo not drawn) [Compound 64],+ (Indicates inhibition greater than . . . 50%)
9,COC1C(O)C(COCc2ccc(Cl)cc2)OC(OCc2ccc(-c3ccccc3)cc2)C1NC(=O)CCCN (stereo not drawn) [Compound 65],+ (Indicates inhibition greater than . . . 50%)
10,COC1C(O)C(COCc2ccc(Cl)cc2)OC(OCc2ccc(-c3ccccc3)cc2)C1NC(=O)CCCNC(=N)N (stereo not drawn) [Compound 66],+ (Indicates inhibition greater than . . . 50%)
11,COC1C(O)C(COCc2ccc(-c3ccccc3)cc2)OC(OCc2ccc3ccccc3c2)C1NC(=O)CNC(=N)N (stereo not drawn) [Compound 67],+ (Indicates inhibition greater than . . . 50%)
12,COC1C(O)C(COCc2ccc(-c3ccccc3)cc2)OC(OCc2ccc3ccccc3c2)C1NC(=O)CCNC(=N)N (stereo not drawn) [Compound 68],+ (Indicates inhibition greater than . . . 50%)
13,COC1C(O)C(COCc2ccc(-c3ccccc3)cc2)OC(OCc2ccc3ccccc3c2)C1NC(=O)CCCNC(=N)N (stereo not drawn) [Compound 70],+ (Indicates inhibition greater than . . . 50%)
14,COC1C(O)C(COCc2ccc3ccccc3c2)OC(OCc2ccc3ccccc3c2)C1NC(=O)CNC(=N)N (stereo not drawn) [Compound 71],+ (Indicates inhibition greater than . . . 50%)
15,COC1C(O)C(COCc2ccc3ccccc3c2)OC(OCc2ccc3ccccc3c2)C1NC(=O)CCNC(=N)N (stereo not drawn) [Compound 72],+ (Indicates inhibition greater than . . . 50%)
16,COC1C(O)C(COCc2ccc3ccccc3c2)OC(OCc2ccc3ccccc3c2)C1NC(=O)CCCNC(=N)N (stereo not drawn) [Compound 74],+ (Indicates inhibition greater than . . . 50%)
17,COC1C(O)C(COCc2ccc(Cl)cc2)OC(OCc2ccc3ccccc3c2)C1NC(=O)CNC(=N)N (stereo not drawn) [Compound 75],+ (Indicates inhibition greater than . . . 50%)
18,COC1C(O)C(COCc2ccc(Cl)cc2)OC(OCc2ccc3ccccc3c2)C1NC(=O)CCNC(=N)N (stereo not drawn) [Compound 76],+ (Indicates inhibition greater than . . . 50%)
19,COC1C(O)C(COCc2ccc(Cl)cc2)OC(OCc2ccc3ccccc3c2)C1NC(=O)CCCNC(=N)N (stereo not drawn) [Compound 78],+ (Indicates inhibition greater than . . . 50%)
20,COC1C(O)C(COCc2ccc(-c3ccccc3)cc2)OC(OCc2ccccc2)C1NC(=O)CCCNC(=N)N (stereo not drawn) [Compound 79],+ (Indicates inhibition greater than . . . 50%)
